Experimental data from US20040180082A1, “Submicron-liposome containing triterpenoid and a method for preparing the same” (AMOREPACIFIC CORPORATION, priority 2002, published 2004).

Test: Wide angle X-ray diffraction of frozen-dried liposome
Format: physicochemical
Conditions: 2θ value at maximum diffraction no more increasing; FIGS. 2 and 3
Protocol: The structures and the crystallinities (crystalline property) of the liposome were analyzed with powder XRD equipped with wide-angle diffractometer (Rigaku/USA, D/max-RB) using Cu-Kα (λ=1.54 Å) ray. The oleanolic acid (OA) and liposome prepared in Examples 1, 3, 4, 5 and 6 and frozen-dried were analyzed by X-ray diffraction in wide-angle (θ=2-50°), and the structures of hydrocarbon chains and the molecular distances of oleanolic acid (OA) crystals were determined by the result of the X-ray diffraction. […] Diffractions in a wide range of near 20° were observed because lipids formed smectic (lamellar) liquid-crystal phase, which correspond to the distances between lipid molecules.

## CC1(C)CC[C@]2(C(=O)O)CC[C@]3(C)C(=CC[C@@H]4[C@@]5(C)CC[C@H](O)C(C)(C)[C@@H]5CC[C@]43C)[C@@H]2C1 [OA, oleanolic acid]
  content of OA at which OA is saturated in the bi-layer of the liposome: 25.4 mole %
